In patent US20240307372A1, “COMPOSITIONS AND METHODS TO IMPROVE BENEFIT OF SUBOPTIMALLY ADMINISTERED THERAPEUCTICS FOR THE TREATMENT OF BENIGN AND NEOPLASTIC DISEASES, INFECTIONS, INFLAMMATORY, METABOLIC AND IMMUNOLOGIAL DISEASES” (priority 2023, published 2024):
Several values for one entry are separate records, joined by “and”; a condition that tells them apart may be missing. Equal entries are not always repeated.

Experiments:
HCT116 cells = conditions: human colorectal (HCT116) cells; cited from earlier work
[1] = system: human chronic myeloid leukemia (CML) progenitors; assay: Colony forming cell (CFC) assay on CML patient bone marrow cells, methylcellulose-based medium
Description: An in vitro investigation was performed to determine whether TET has efficacy on human chronic myeloid leukemia (CML) stem-like cells. A colony forming cell (CFC) assay was performed on bone marrow cells from a de-novo CML patient.
Human bone marrow light density cells derived from CML patient bone marrow (Conversant Bio, Alabama), were stored in the gaseous phase of liquid nitrogen until required. On the day of the experiment, the cells were thawed rapidly, the contents of the vial were diluted in 10 mL of Iscove's Modified Dulbecco's Medium containing 10% fetal bovine serum (IMDM+10% FBS) and washed by centrifugation (approximately 1200 r.p.m. for 10 minutes, room temperature). The supernatant was discarded and the cell pellets resuspended in a known volume of IMDM+10% FBS. A cell count (3% glacial acetic acid) and viability assessment (trypan blue exclusion test) […] Tetrandrine (10 μM) for 14 days. After treatment, primary and secondary colonies were grown and analyzed by qPCR to determine BCR-ABL or ABL only cells.
Human erythroid (CFU-E and BFU-E) and myeloid (CFU-GM) colony enumeration were performed by trained personnel. In addition, the distribution of colony types as well as general colony and cellular morphology were analyzed. […] For statistical analysis, colony numbers in compound-treated cultures were compared to the solvent control cultures.

[2] = system: leukemic cells and leukemic stem cells; assay: BCR-ABL CML mouse model (bone marrow transplantation), oral treatment; type: in vivo; conditions: mice, orally, 150 mg/kg, 1×/day
Description: In an in vivo model, the effectiveness of Tetrandrine was tested on CML stem cells. The objective of the study was to determine the survival of leukemic cells and leukemic stem cells in response to the treatment with Tetrandrine. After priming donor C57BL/6 (B6) mice with intravenous injections of 5-fluorouracil for four days, bone marrow cells were harvested from femurs and tibia, then transfected twice with retrovirus containing MSCV-BCR-ABL-IRES-GFP. Recipient mice were lethally irradiated by two doses of 550 cGy before bone marrow transplantation by intravenous injection with 5×10^5 cells/mouse. Blood from recipient mice was tested for disease induction one week after transduction by FACS analysis for GFP (FIG. 7A). […] Treatments started on day 8 after bone marrow transplantation (FIG. 7B).

[3] = system: human breast, colon carcinoma, and hepatoma cell lines; conditions: read-out: IC50 range; cited from earlier work
bcr-abl = assay: TaqMan qPCR assay for bcr-abl and abl in plucked CML colonies; type: cell-based, human; conditions: 10 μM
Description: To determine whether a colony was normal (bcr-abl negative and abl positive) or diseased (bcr-abl and abl positive), a TaqMan®-based qPCR test was used. In order to score the colonies positive or negative, the following scoring strategy was performed. All colonies were assayed in duplicate for each target. If a singleton reaction yielded a Ct then the reaction scored a 1. If no Ct was recorded, a score of 0 was given. From here, we used a logic test to score the colonies into four different categories: bcr-abl and abl, abl only, bcr-abl only or both negative. In order to be placed in a category, a colony must score a 1 in both reactions. However, if a colony only scored a 1 for one out of the two reactions, this colony was removed from the analysis. If a colony scored a 1 for each reaction (both ber-abl and abl) the colony was placed into the ber-abl and abl category, signifying it as a diseased colony. Alternatively, if a colony scored a 1 in only both of the ber-abl reactions or a 1 in only both the abl reactions, the colony was placed in the ber-abl only or abl only category, respectively. If the colony scored a 0 for both targets (bcr-abl and abl) then the colony was placed in the both negative category.
In total 48 primary colonies and 31 secondary replated colonies were assessed for bcr-abl and abl using qPCR. […] Thirteen secondary colonies treated with Tetrandrine at 10 μM were assessed.

CAMKII gamma = target: T1, CAMKII gamma (Homo sapiens, UniProt Q13555); assay: CAMKII gamma kinase activity, ADP Glo (Promega); type: biochemical; conditions: for CAMKII gamma kinase activity inhibition (in words): 10 or 50 uM ATP
T1 construct: purchased Promega V3531
T1 sequence (Q13555 whole entry): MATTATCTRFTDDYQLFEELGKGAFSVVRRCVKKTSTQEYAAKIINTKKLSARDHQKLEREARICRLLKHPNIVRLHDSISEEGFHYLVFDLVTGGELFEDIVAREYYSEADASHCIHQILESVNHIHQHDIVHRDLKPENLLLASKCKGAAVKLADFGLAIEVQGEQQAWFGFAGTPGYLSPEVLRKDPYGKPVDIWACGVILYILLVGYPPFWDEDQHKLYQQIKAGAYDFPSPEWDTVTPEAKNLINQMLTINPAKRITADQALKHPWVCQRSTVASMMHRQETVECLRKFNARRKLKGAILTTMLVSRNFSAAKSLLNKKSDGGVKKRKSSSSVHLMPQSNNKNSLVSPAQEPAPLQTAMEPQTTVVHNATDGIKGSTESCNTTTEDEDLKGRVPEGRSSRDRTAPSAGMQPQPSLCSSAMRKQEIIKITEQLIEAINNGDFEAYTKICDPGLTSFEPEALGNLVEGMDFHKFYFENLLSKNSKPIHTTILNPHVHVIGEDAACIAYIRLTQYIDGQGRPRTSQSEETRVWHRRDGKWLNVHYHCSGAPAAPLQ
Description: An enzymatic study was conducted to evaluate the inhibition of CAMKII gamma by ES-3000 (Tetrandrine). CAMKII gamma kinase activity was measured using […] purchased from Promega following the Promega protocol. CAMKII enzyme system purchased from Promega (V3531). ADP Glo was used for detection. Assay optimized for linearity of protein and time. Conditions for inhibitor screening 25 ng CAMKII, 20 min. incubations, inhibitor or DMSO (5%) at RT in 20 uL total volume. Inhibitor, ATP (10 or 50 uM), substrates and buffer added to tubes and reactions started with enzyme. […] Reactions terminated at 20 min. by adding ADP Glo reaction following manufactures instructions. All reactions were done in duplicate. Calculations of percent (%) inhibition determined by dividing the mean activity at each condition by the mean of the DMSO control times 100.

Pgp = Pgp (Homo sapiens, UniProt P08183); conditions: cited from earlier work
Sequence of Pgp (P08183 whole entry): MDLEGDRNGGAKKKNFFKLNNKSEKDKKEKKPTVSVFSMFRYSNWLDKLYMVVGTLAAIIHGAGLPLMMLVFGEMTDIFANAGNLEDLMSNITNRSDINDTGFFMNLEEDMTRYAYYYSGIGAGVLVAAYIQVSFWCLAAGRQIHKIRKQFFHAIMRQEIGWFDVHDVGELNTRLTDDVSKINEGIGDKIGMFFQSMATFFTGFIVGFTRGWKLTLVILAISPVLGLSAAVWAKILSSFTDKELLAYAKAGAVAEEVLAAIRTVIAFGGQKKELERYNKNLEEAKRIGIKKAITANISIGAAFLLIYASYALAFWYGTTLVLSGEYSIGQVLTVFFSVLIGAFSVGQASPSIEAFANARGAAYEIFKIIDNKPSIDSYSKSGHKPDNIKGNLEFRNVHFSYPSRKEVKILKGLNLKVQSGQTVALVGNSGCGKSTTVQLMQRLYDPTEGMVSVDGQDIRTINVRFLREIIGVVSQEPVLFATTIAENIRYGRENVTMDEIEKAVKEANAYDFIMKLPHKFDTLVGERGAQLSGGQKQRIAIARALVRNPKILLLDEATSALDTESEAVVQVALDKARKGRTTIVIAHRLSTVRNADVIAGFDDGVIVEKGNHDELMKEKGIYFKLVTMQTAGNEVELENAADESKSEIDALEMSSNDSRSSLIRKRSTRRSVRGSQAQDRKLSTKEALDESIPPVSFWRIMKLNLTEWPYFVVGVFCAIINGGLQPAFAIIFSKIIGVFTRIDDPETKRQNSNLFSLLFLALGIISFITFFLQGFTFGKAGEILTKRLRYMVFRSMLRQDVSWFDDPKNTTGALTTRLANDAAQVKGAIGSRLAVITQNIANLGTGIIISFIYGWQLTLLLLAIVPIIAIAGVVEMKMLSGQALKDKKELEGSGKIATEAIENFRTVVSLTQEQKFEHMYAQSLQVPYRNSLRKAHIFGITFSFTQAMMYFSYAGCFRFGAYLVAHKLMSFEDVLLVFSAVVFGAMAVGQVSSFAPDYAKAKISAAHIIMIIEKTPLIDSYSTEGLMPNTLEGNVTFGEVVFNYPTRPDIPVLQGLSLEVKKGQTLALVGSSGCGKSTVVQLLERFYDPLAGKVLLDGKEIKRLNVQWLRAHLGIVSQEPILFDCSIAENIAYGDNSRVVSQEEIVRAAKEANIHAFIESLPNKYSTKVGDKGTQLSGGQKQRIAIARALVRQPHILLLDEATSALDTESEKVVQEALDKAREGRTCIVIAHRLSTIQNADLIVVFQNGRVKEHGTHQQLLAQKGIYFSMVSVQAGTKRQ

[4] = Primary colonies, of 17 colonies
[5] = Secondary colonies, of 10 colonies

In the case of “6,6′,7,12-tetramethoxy-2,2′-dimethyl-berbaman [ES-3000]”, the “wnt/β-catenin signaling and tumor growth” value (HCT116 cells) is given as “inhibit wnt/β-catenin signaling and tumor growth”, the CFU-GM colonies ([1]; 10 μM) is given as 26 ± 2 and the “Total CFC” value ([1]; 10 μM) is given as 26 ± 2. For the same substance, the IC50 ([1]; read-out: Myeloid IC50 ± 95% CI, Human progenitors) was 9.56 ± 1.25 µM, the “inhibiting the development of circulating leukemic cells” value ([2]; listed as TET) was “reduced the development of leukemic cells in the peripheral blood” and the “inhibiting the development of leukemic stem cells” value ([2]; listed as TET) was “reduced the development of”. For the same substance, the “inhibiting the development of circulating leukemic cells” value ([2]; listed as Tetrandrine) was “superior to Imatinib”, the “inhibiting the development of leukemic stem cells” value ([2]; listed as Tetrandrine) was “superior to Imatinib” and the IC50 [3] was 1.53 to 10.4 µM. The abl only colonies (bcr-abl; Primary colonies) was 1, the “bcr-abl and abl colonies” value (bcr-abl; Primary colonies) was 11 and the bcr-abl only colonies (bcr-abl; Primary colonies) was 1. The both negative colonies (bcr-abl; Primary colonies) was 4, the “colonies abl positive only” value (bcr-abl; [4]) was 5.8% and the “colonies bcr-abl and abl positive” value (bcr-abl; [4]) was 65%. For the same substance, the “colonies negative for both targets” value (bcr-abl; [4]) was 23.5%, the “colonies bcr-abl and abl positive” value (bcr-abl; Primary colonies, of 17 colonies, listed as Tetrandrine) was 64.7% and the abl only colonies (bcr-abl; Secondary colonies) was 1. For the same substance, the “bcr-abl and abl colonies” value (bcr-abl; Secondary colonies) was 0, the bcr-abl only colonies (bcr-abl; Secondary colonies) was 0 and the both negative colonies (bcr-abl; Secondary colonies) was 9. The “colonies negative for both bcr-abl and abl” value (bcr-abl; [5]) was 90%, the “colonies positive for abl only” value (bcr-abl; [5]) was 10% and the “% inhibition” value (CAMKII gamma; 30 uM, 10 uM ATP) was 29.1% and 29%. The “CamKIIγ activity, mean” value (CAMKII gamma; 30 uM, 10 uM ATP) was 3.09 units, the “CamKIIγ activity, units (duplicates)” value (CAMKII gamma; 30 uM, 10 uM ATP) was 2.75 units and 3.43 units and the “kinase activity, % of DMSO control” value (CAMKII gamma; 30 uM, 10 uM ATP) was 71%. The “% inhibition” value (CAMKII gamma; 30 uM, 50 uM ATP) was 15%, the “CamKIIγ activity, mean” value (CAMKII gamma; 30 uM, 50 uM ATP) was 10.55 units and the “CamKIIγ activity, units (duplicates)” value (CAMKII gamma; 30 uM, 50 uM ATP) was 10.4 units and 10.7 units. For the same substance, the “kinase activity, % of DMSO control” value (CAMKII gamma; 30 uM, 50 uM ATP) was 85%, the “% inhibition” value (CAMKII gamma; 100 uM, 10 uM ATP) was 34.2% and 34% and the “CamKIIγ activity, mean” value (CAMKII gamma; 100 uM, 10 uM ATP) was 2.87 units. For the same substance, the “CamKIIγ activity, units (duplicates)” value (CAMKII gamma; 100 uM, 10 uM ATP) was 2.5 units and 3.24 units, the “kinase activity, % of DMSO control” value (CAMKII gamma; 100 uM, 10 uM ATP) was 66% and the “% inhibition” value (CAMKII gamma; 100 uM, 50 uM ATP) was 36%. For the same substance, the “CamKIIγ activity, mean” value (CAMKII gamma; 100 uM, 50 uM ATP) was 7.955 units, the “CamKIIγ activity, units (duplicates)” value (CAMKII gamma; 100 uM, 50 uM ATP) was 8.81 units and 7.1 units and the “kinase activity, % of DMSO control” value (CAMKII gamma; 100 uM, 50 uM ATP) was 64%. For the same substance, the “% inhibition” value (CAMKII gamma; 250 uM, 10 uM ATP) was 90.6% and 91%, the “CamKIIγ activity, mean” value (CAMKII gamma; 250 uM, 10 uM ATP) was 0.41 units and the “CamKIIγ activity, units (duplicates)” value (CAMKII gamma; 250 uM, 10 uM ATP) was 0.34 units and 0.48 units. For the same substance, the “kinase activity, % of DMSO control” value (CAMKII gamma; 250 uM, 10 uM ATP) was 9%, the “CAMKII gamma kinase activity inhibition (in words)” value (CAMKII gamma) was “inhibited CAMKII gamma kinase activity in a dose dependent manner” and the “CAMKII gamma kinase activity inhibition (in words)” value (CAMKII gamma; listed as TET) was “inhibited the activation of CaMKIIγ in a dose dependent manner”. The Pgp substrate (Pgp) was “not a substrate of Pgp” and the “function of Pgp” value (Pgp) was “directly inhibits the function of Pgp in a dose-dependent manner”.
